From patent US11413278B2, “Compounds and methods for promoting stress resistance” (priority 2015, dated 2022)
Entries after “also recorded” stand apart in the source; their conditions may differ. Read-outs that look alike come from different tables or passages of the source.

What was measured:
Format in all cases: cell-based, human
NRF2 = test: in vitro; conditions: for NRF2-dependency for H2O2-resistance, at 10 uM - with H2O2, 2nd experiment: experiment 2 (2nd); for NRF2-dependency for H2O2-resistance, 2nd experiment / NRF2-dependency for H2O2-resistance, 1st experiment: with H2O2, NRF2 knockdown in WI-38 cells; for Assay 17: NRF2-dependency for H2O2-resistance: YES/NO; for NRF2-dependency of H2O2-resistance (NRF2 siRNA knockdown): at least 2 of 3 independent experiments; for NRF2-dependency for H2O2-resistance, at 10 uM - with H2O2, 1st experiment: experiment 1 (1st)
FOXO3 = test: qPCR analysis of FOXO3-regulated genes; conditions: for fold induction at 10 µM: Homo sapiens; for K = Sestrin induction: score
Outline: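 WI-38 cells treated with compound at 10 μM for 24 h, followed by Cells-to-Ct RT-qPCR of FOXO3 target genes normalised to B2M, PPIA and GAPDH. FOXO3 or NRF2 dependence tested by prior 10 nM siRNA knockdown (36 h transfection, compound added ~24 h after replating).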

mTOR = mTOR inhibition (RPS6 phosphorylation status), In-Cell Western; conditions: for Exp. 1, normalized reduction in p-RPS6/RPS6 ratio / Exp. 3, normalized reduction in p-RPS6/RPS6 ratio: n=4
Outline: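 WI-38 cells exposed to compounds at 5, 10 and 20 μM for 24 hrs. Fixed cells co-stained overnight at 4° C with anti-RPS and anti-pRPS6 (Ser-235/236) antibodies, then DyLight 680/800 secondaries. Phospho-RPS6 relative to total RPS6 read by near-infrared In-Cell Western imaging.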

WI-38 cells = test: Propidium iodide (PI) cell-death imaging upon H2O2 stress; conditions: for Assay 7: H2O2-resistant, at 10 uM, validated by propidium iodide (PI) cell-death imaging: w/H2O2, 3 hrs/4 hrs/5 hrs, YES/NO; for cytotoxicity at 10 µM: Homo sapiens, WI-38
[1] = 10 uM, YES = resistance reduced by at least 50%, partial = 25% to 50%
[2] = 24 h, Assay 10(m), at 10 uM, qPCR, read-out: Induction of FOXO3-regulated genes: TXNIP normalized fold-change
[3] = 10 μM, 24 hrs, WI-38 cells, qPCR, normalized to B2M, n = 4, read-out: TXNIP expression, normalized fold change (FOXO3-regulated gene)
[4] = WI-38 cells, 10 μM, 24 hrs, n=4, qPCR normalized by B2M, read-out: DDB1 Normalized fold change
[5] = WI-38 cells, 10 μM, 24 hrs, n=4, qPCR normalized by B2M, read-out: GADD45A Normalized fold change
[6] = WI-38 cells, 10 μM, 24 hrs, n=4, qPCR normalized by B2M, read-out: SESN1 Normalized fold change
[7] = fold change, qPCR, WI-38 cells, 10 μM, 24 hrs, read-out: Summary of effects on FOXO3-regulated genes: TXNIP
[8] = qPCR, WI-38 cells, 10 μM, n=4, 24 hrs, normalized by B2M, read-out: CAT Normalized fold change
[9] = qPCR, WI-38 cells, 10 μM, n=4, 24 hrs, normalized by B2M, read-out: SOD2 Normalized fold change
[10] = qPCR, WI-38 cells, 10 μM, n=4, 24 hrs, normalized by B2M, read-out: TXNIP Normalized fold change
[11] = H2O2 3 hrs, 10 uM, n = 6, negative control 5.44% ± 0.79%, read-out: Percentage of propidium iodide-positive dead cells (under H2O2 stress treatment), 3 hrs
[12] = H2O2 4 hrs, 10 uM, n = 6, negative control 16.81% ± 1.42%, read-out: Percentage of propidium iodide-positive dead cells (under H2O2 stress treatment), 4 hrs
[13] = pre-treatment at 10 uM, 3.5 hours of H2O2, DMSO control 27.4% ± 6.5%, */**/*** = reduced by one/two/three standard deviations, read-out: Percentage of propidium iodide-positive dead cells (under H2O2 stress treatment), at 10 uM
[14] = 24 h, Assay 10(m), at 10 uM, qPCR, read-out: Induction of FOXO3-regulated genes: GADD45A normalized fold-change
[15] = 10 μM, 24 hrs, WI-38 cells, qPCR, normalized to B2M, n = 4, read-out: GADD45A expression, normalized fold change (FOXO3-regulated gene)
[16] = fold change, qPCR, WI-38 cells, 10 μM, 24 hrs, read-out: Summary of effects on FOXO3-regulated genes: GADD45A

For Cc1cc(C)c(C(=O)/C=C/c2ccccc2F)c(O)n1 [O18], the “NRF2-dependency for H2O2-resistance, at 10 uM - with H2O2, 2nd experiment” value (NRF2; 10 uM) was 2nd, partial, the “NRF2-dependency for H2O2-resistance, at 10 uM (experiment 3) - with & without H2O2” value (NRF2; 10 uM, experiment 3, with & without H2O2) was “YES” and the “NRF2-dependency for H2O2-resistance (experiment 3)” value (NRF2; 10 uM, with & without H2O2, NRF2 knockdown in WI-38 cells, YES = resistance reduced by at least 50%, partial = 25% to 50%) was “YES”. The “NRF2-dependency for H2O2-resistance, 2nd experiment” value (NRF2; [1]) was “partial”, the “Assay 17: NRF2-dependency for H2O2-resistance” value (NRF2; 10 uM) was “YES” and the “NRF2-dependency of H2O2-resistance (NRF2 siRNA knockdown)” value (NRF2) was “significantly attenuate”. The “J = NRF2-dependency for H2O2-resistance” value (NRF2; score) was 1, the “J = NRF2-dependency for H2O2-resistance” value (NRF2; summary score) was 1 and the “E = Potential FOXO3 Activation” value (FOXO3; 2-point score) was 0. For the same molecule, the fold induction at 10 µM (FOXO3; [2]) was 0.3, the fold induction at 10 µM (FOXO3; [3]) was 0.3 and the fold induction at 10 µM (FOXO3; [4]) was 1.33. It also gave a fold induction at 10 µM (FOXO3; [5]) of 0.861, a fold induction at 10 µM (FOXO3; [6]) of 1.06 and a fold induction at 10 µM (FOXO3; [7]) of 0.3. For the same molecule, the fold induction at 10 µM (FOXO3; [8]) was 1.47, the fold induction at 10 µM (FOXO3; [9]) was 1.04 and the fold induction at 10 µM (FOXO3; [10]) was 0.297. For the same molecule, the “K = Sestrin induction” value (FOXO3) was 0, the “E = Potential FOXO3 Activation” value (FOXO3; summary score) was 0 and the “G = mTOR down-regulation” value (mTOR; 2-point score) was 0. For the same molecule, the “G = mTOR down-regulation” value (mTOR; summary score) was 0, the “Assay 7: H2O2-resistant, at 10 uM, validated by propidium iodide (PI) cell-death imaging” value (shortened to “Assay 7: H2O2-resistant, at 10 uM”) (WI-38 cells; 10 uM) was “YES” and the cytotoxicity at 10 µM (WI-38 cells; [11]) was 3.66%. For the same molecule, the cytotoxicity at 10 µM (WI-38 cells; [12]) was 3.06%, the cytotoxicity at 10 µM (WI-38 cells; H2O2 5 hrs, 10 uM, n = 6, negative control 22.50% ± 1.53%, read-out: Percentage of propidium iodide-positive dead cells (under H2O2 stress treatment), 5 hrs) was 4.16% and the cytotoxicity at 10 µM (WI-38 cells; [13]) was 4.5%.

With O=C(Nc1ccc(Cl)c(Cl)c1)c1ccc([N+](=O)[O-])o1 [Gr-1G] the “NRF2-dependency for H2O2-resistance, at 10 uM - with H2O2, 1st experiment” value (NRF2; 10 uM) was 1st, YES;, the “NRF2-dependency for H2O2-resistance, 1st experiment” value (NRF2; [1]) was “YES;” and the “J = NRF2-dependency for H2O2-resistance” value (NRF2; score) was 0. For the same molecule, the “J = NRF2-dependency for H2O2-resistance” value (NRF2; summary score) was 0, the “SOD2 expression, normalized fold change (FOXO3-regulated gene)” value (FOXO3; 10 μM, 24 hrs, WI-38 cells, qPCR, normalized to B2M, n = 4) was “SOD2 0.76, fold” and the “E = Potential FOXO3 Activation” value (FOXO3; 2-point score) was 0. For the same molecule, the fold induction at 10 µM (FOXO3; 24 h, Assay 10(m), at 10 uM, qPCR, read-out: Induction of FOXO3-regulated genes: CAT normalized fold-change) was 1.35, the fold induction at 10 µM (FOXO3; [14]) was 0.6 and the fold induction at 10 µM (FOXO3; 24 h, Assay 10(m), at 10 uM, qPCR, read-out: Induction of FOXO3-regulated genes: SOD2 normalized fold-change) was 0.76. For the same molecule, the fold induction at 10 µM (FOXO3; 10 μM, 24 hrs, WI-38 cells, qPCR, normalized to B2M, n = 4, read-out: CAT expression, normalized fold change (FOXO3-regulated gene)) was 1.35, the fold induction at 10 µM (FOXO3; [15]) was 0.6 and the fold induction at 10 µM (FOXO3; [4]) was 1.14. For the same molecule, the fold induction at 10 µM (FOXO3; [5]) was 0.597, the fold induction at 10 µM (FOXO3; [6]) was 1.38 and the fold induction at 10 µM (FOXO3; fold change, qPCR, WI-38 cells, 10 μM, 24 hrs, read-out: Summary of effects on FOXO3-regulated genes: CAT) was 1.35. The fold induction at 10 µM (FOXO3; [16]) was 0.6, the fold induction at 10 µM (FOXO3; [8]) was 1.35 and the fold induction at 10 µM (FOXO3; [9]) was 0.756. For the same molecule, the fold induction at 10 µM (FOXO3; [10]) was 1.03, the “Summary of effects on FOXO3-regulated genes: SOD2” value (FOXO3; fold change, qPCR, WI-38 cells, 10 μM, 24 hrs) was “SOD2 0.76,” and the “K = Sestrin induction” value (FOXO3) was 0. The “E = Potential FOXO3 Activation” value (FOXO3; summary score) was 0, the “G = mTOR down-regulation” value (mTOR; 2-point score) was 0 and the “G = mTOR down-regulation” value (mTOR; summary score) was 0. For the same molecule, the “Assay 7: H2O2-resistant, at 10 uM” value (WI-38 cells; 10 uM) was “YES” and the cytotoxicity at 10 µM (WI-38 cells; [13]) was 34.4%.

In the case of O=C(NCc1cccnc1)/C(=C\c1ccc(Br)cc1)S(=O)(=O)c1ccccc1 [Gr-7B], the “NRF2-dependency for H2O2-resistance, at 10 uM - with H2O2, 1st experiment” value (NRF2; 10 uM) is reported as 1st, partial;, the “NRF2-dependency for H2O2-resistance, at 10 uM - with H2O2, 2nd experiment” value (NRF2; 10 uM) is reported as 2nd, partial and the “NRF2-dependency for H2O2-resistance, 1st experiment” value (NRF2; [1]) is reported as “partial;”. For the same molecule, the “NRF2-dependency for H2O2-resistance, 2nd experiment” value (NRF2; [1]) was “partial”, the “Assay 17: NRF2-dependency for H2O2-resistance” value (NRF2; 10 uM) was “YES” and the “NRF2-dependency of H2O2-resistance (NRF2 siRNA knockdown)” value (NRF2) was “significantly attenuate”. The “J = NRF2-dependency for H2O2-resistance” value (NRF2; score) was 1, the “J = NRF2-dependency for H2O2-resistance” value (NRF2; summary score) was 1 and the “E = Potential FOXO3 Activation” value (FOXO3; 2-point score) was 0. For the same molecule, the fold induction at 10 µM (FOXO3; [14]) was 2.07, the fold induction at 10 µM (FOXO3; [2]) was 0.26 and the fold induction at 10 µM (FOXO3; [15]) was 2.07. For the same molecule, the fold induction at 10 µM (FOXO3; [3]) was 0.26, the fold induction at 10 µM (FOXO3; [4]) was 1.31 and the fold induction at 10 µM (FOXO3; [5]) was 2.07. The fold induction at 10 µM (FOXO3; [6]) was 0.952, the fold induction at 10 µM (FOXO3; [16]) was 2.07 and the fold induction at 10 µM (FOXO3; [7]) was 0.26. It also gave a fold induction at 10 µM (FOXO3; [8]) of 1.13, a fold induction at 10 µM (FOXO3; [9]) of 1.33 and a fold induction at 10 µM (FOXO3; [10]) of 0.262. For the same molecule, the “K = Sestrin induction” value (FOXO3) was 0, the “E = Potential FOXO3 Activation” value (FOXO3; summary score) was 0 and the “G = mTOR down-regulation” value (mTOR; 2-point score) was 2. The “mTOR down-regulation by p-RPS6 assays” value (mTOR; Assay 14(q), at 5 uM, 10 uM & 20 uM) was “YES”, the “Exp. 1, normalized reduction in p-RPS6/RPS6 ratio” value (mTOR; Exp. 1, In-Cell Western) was ~67% (−), at 20 μM and the “Exp. 1, normalized reduction in p-RPS6/RPS6 ratio” value (mTOR; Exp. 1, at 10 μM, In-Cell Western) was ~65% (−), at 10 μM;. The “Exp. 3, normalized reduction in p-RPS6/RPS6 ratio” value (mTOR; Exp. 3, In-Cell Western) was ~53% (−), at 20 μM, the “Exp. 3, normalized reduction in p-RPS6/RPS6 ratio” value (mTOR; Exp. 3, at 5 μM, In-Cell Western) was ~48% (−), at 5 μM; and the “Exp. 3, normalized reduction in p-RPS6/RPS6 ratio” value (mTOR; Exp. 3, at 10 μM, In-Cell Western) was ~45% (−), at 10 μM;. For the same molecule, the “mTOR inhibition (p-RPS6/RPS6), qualitative” value (mTOR; In-Cell Western) was “mTOR-inhibiting activities; also recorded: consistently reduced the ratios”, the “G = mTOR down-regulation” value (mTOR; summary score) was 2 and the “Assay 7: H2O2-resistant, at 10 uM” value (WI-38 cells; 10 uM) was “YES”. The cytotoxicity at 10 µM (WI-38 cells; [11]) was 5.88%, the cytotoxicity at 10 µM (WI-38 cells; [12]) was 6.44% and the cytotoxicity at 10 µM (WI-38 cells; [13]) was 4.7%.
